Experimental data published in patent US4276286A, “Process for decreasing ammonia concentration in domestic animals or fowls” (Kumiai Chemical Industry Co., Ltd., priority 1975, dated 1981).

What was measured:
[1] = Behavior of antibiotics in soil (microbial quantitative method); details: 10 μg/g added to soil, room temperature
Protocol: (§1) The rise and fall in the activity of the multhiomycin excreted without absorption in the interior of the animal body was compared with the activity of other antibiotics, such as thiopeptin and thiostrepton.
To soils (collected in Kikukawa-cho, Ogasa-gun, Shizuoka-ken, Japan) which were confirmed to have no anti-antibiotic activity were respectively added multhiomycin, thiopeptin and thiostrepton, each containing 10 μg/g concentration of each antibiotic. The soils were preserved under room temperature condition, and the remaining potencies in soils of each antibiotic were measured at different time intervals according to the microbal quantitative method.

[2] = Remaining activity of antibiotics in excrement of chickens (microbial quantitative method); details: 10 μg/g added to chicken excrement, room temperature
Protocol: as §1
Multhiomycin, thiopeptin and thiostrepton were respectively added to the excrement of chickens bred with the feed containing no antibiotics in a concentration of 10 μg/g. The excrement was preserved under room temperature condition and the remaining potency of each antibiotic in excrement was measured at different time intervals with a microbal quantitative method.

mice = test: Acute toxicity in mice; type: in vivo, mouse; details: injection into abdominal cavity; for LD50 in words: mice, compared with multhiomycin
Protocol: Acute toxins of multhiomycin, thiopeptin and thiostrepton administered to mice, were measured by injection of each drug into the abdominal cavities of the mice.

[3] = Acute toxicity (general statement); type: in vivo; details: in comparison with other antibiotics
bacteria = test: In vitro action on bacteria; type: cell-based
ammonia in excrement = test: Ammonia concentration in excrement of chickens (Kitagawa's vacuum gas detector); type: in vivo, chicken
Source text: The tests were made on commercially available chickens for exclusive use as broilers (kind: Hubbard). 150 Chickens which were just hatched (male: 75, female: 75) were divided into 3 groups, each consisting of 50 chickens. Basal diets (containing no antibiotics, see Tables 6 and 7) were given to one group, and diets containing 2.5 ppm or 10 ppm of multhiomycin were given to the other two groups. The feed was constantly supplied to each group with water for 8 weeks from the hatching. Each group was bred in one windless cage (1.8×5.4×2.7 m, 9.7 m^2 per group), and each cage was kept warm by circulating warm water under the floor until the chickens were two weeks old. Further, the floor were covered with wood chips in a depth of about 3 cm.
About 6 or 8 weeks from the beginning of the test, the ammonia concentration in excrement was measured in each group. The ammonia concentrations in the excrement were measured with Kitagawa's vacuum gas detector and the moisture content therein was measured with the hot-air drying method whereby 2 kg weight of excrement (containing chips) was treated at 100°±2° C. for 24 hours to measure its moisture content.

ammonia = test: Ammonia concentration in the animal's body, intestine and blood or excrements (general statement); type: in vivo; details: compared with untreated animals
[4] = test system: ammonia (NH3-N) in contents of the colon; test: Ammonia concentration in contents of the colon of chickens (modified Fujii-Okuda method); type: in vivo, chicken; details: after 8 weeks, control 155
Protocol: Chickens just after hatching were divided into 5 groups, each consisting of 10 chickens. Diets containing 2.5 ppm or 5.00 ppm of multhiomycin were given to two groups, respectively, and diets containing 2.5 ppm or 5.00 ppm of thiopeptin were given to other two groups (comparative groups), respectively. A medicament-free diet was given to the remaining one group (control group). After 8 weeks, with respect to each group, the ammonia concentrations in the contents of the colon were determined according to a modification of the method of Fujii and Okuda, described hereinafter.
(§2) A deproteinizing solution was added to the sample to deproteinize the sample and remove coloration-inhibiting components therefrom and simultaneously deactivate enzymes for preventing formation of ammonia during standing. The supernatant was separated and a coloring solution containing phenol and a nitroprusside salt was added thereto. Then, an alkaline solution was added to the mixture to make it alkaline, and a coloring solution containing sodium hypochlorite was further added to effect oxidation and form indophenol showing a blue color. The absorbance of this color at 630 mμ was measured to determine the ammonia nitrogen concentration. This measurement method is expressed by the following reaction formula: [drawing 1]
(§3) Incidentally, the nitroprusside salt acts as a catalyst in the above reaction.

Acidity = type: physicochemical
[5] = in vivo
[6] = test system: ammonia (NH3-N) in portal blood; test: Ammonia concentration in portal blood of pigs (modified Fujii-Okuda method); type: in vivo, pig; details: 10 ppm in diet, after 2 months; for NH3-N in portal blood: control 6.80
Protocol: as §2, §3
Young pigs just after weaning were divided into 3 groups, each consisting of 6 pigs. Diets containing 10 ppm of multhiomycin were given to one group, diets containing 10 ppm of thiopeptin as the comparative medicament were given to another group, and a medicament-free diet was given to the remaining one group (control group). After 2 months, with respect to each group, the ammonia concentrations in portal blood were determined according to the modified Fujii-Okuda method.

Row | Compound | Remaining ratio in soil after 60 days [1] [%] | Remaining amount in excrement after 5 days [2] [%] | Acute toxicity LD50 (mice; male mouse) | LD50 in words (mice) | Acute toxicity in words [3] | Action on bacteria (bacteria) | Ammonia concentration in excrement (ammonia in excrement; 2.5 ppm in diet, 6 weeks of age, control 25.5) [ppm] | Ammonia concentration in excrement (ammonia in excrement; 2.5 ppm in diet, 8 weeks of age, control 29.7) [ppm] | Ammonia concentration in excrement (ammonia in excrement; 10 ppm in diet, 6 weeks of age, control 25.5) [ppm] | Ammonia concentration in excrement (ammonia in excrement; 10 ppm in diet, 8 weeks of age, control 29.7) [ppm] | Ammonia in excrement of treated animals, in words (ammonia) | NH3-N in contents of colon ([4]; 2.5 ppm in diet) | NH3-N in contents of colon ([4]; 5.0 ppm in diet) | Acute toxicity LD50 (mice; female mouse) | Deaths (mice; mice, 4,000 mg/kg) | Acidity (Acidity) | Amount remaining in internal organs or muscles, in words [5] | Excretion [5] | NH3-N in portal blood, value in parentheses (difference from control) [6] [µg/mL] | NH3-N in portal blood [6] [µg/mL]
1 | Thiostrepton | 44 | 43 | 85 mg/kg | small values of LD50 | – | – | – | – | – | – | – | – | – | – | – | – | – | – | – | –
2 | C=C(NC(=O)c1csc(-c2nc3c(cc2O)-c2nc(cs2)C(=O)NC(C(C)O)C(=O)NC(=CC)c2nc(cs2)C(=O)NC2CC(O)C(=O)OCc4cccc5[nH]c(c(C)c45)C(=O)SCC(NC(=O)c4csc2n4)c2nc-3cs2)n1)C(N)=O (stereo not drawn) [Multhiomycin] | – | – | > 4,000 mg/kg | – | low degree of acute toxicity | astonishing action on bacteria | 9.8 | 11.2 | 9.0 | 10.0 | very small amounts of ammonia | 60 μg/g of wet matter | 46 μg/g of wet matter | > 4,000 mg/kg | did not cause a single death | slightly acidic | so little as to be not perceptible in a recognizable amount | completely excreted | -3.36 | 3.44
3 | Thiopeptin | 41 | 52 | 780 mg/kg | small values of LD50 | – | – | – | – | – | – | – | 120 μg/g of wet matter | 100 μg/g of wet matter | 660 mg/kg | – | – | – | – | -0.8 | 6.00
